# Read-outs that look alike come from different tables or passages of the source.
# What was measured:
# Assay in all cases: MIC broth microdilution
# Format in all cases: cell-based
# [1] = test system: Burkholderia cepacia ATCC 25416
# [2] = test system: Acinetobacter sp. ATCC 49137
# Method: (§1) Briefly, the MIC was determined by microbroth dilution assay in a 96 well plate. 4-5 colonies of each bacterium tested were added to 5 ml of MHB, placed in a 35° C. shaker until the OD 600 nm reached 0.08-0.10. The inoculum was diluted 1:100 and 50 microliters were added to each well which contained 50 microliters of serial two fold dilutions of Lento, vancomycin or ciprofloxacin. Each concentration of antibiotic or Lento was tested in duplicate. The plate was placed at 35° C. overnight. MICs were determined after 24 hours incubation and defined by the well containing the lowest amount of antibiotic with no visible growth.
# [3] = test system: Staphylococcus aureus subsp. aureus (MRSA & GISA) ATCC 700789
# Method: as §1
# [4] = test system: Enterococcus faecium ATCC 51559; settings: ATCC51559; Enterococcus faecium ATCC 51559, Gram +; MHB, 35° C., 24 hours; read-out: MIC
# Method: as §1
# [5] = test system: Streptococcus pneumoniae (PSRSP) ATCC 700671
# Method: as §1
# [6] = test system: Streptococcus pneumoniae ATCC 700676
# Method: as §1
# [7] = test system: Eschericia coli ATCC 35218; settings: 24 h
# Method: as §1
# [8] = test system: Staphylococcus aureus (GISA) ATCC 700699
# Method: as §1
# [9] = test system: Eschericia coli ATCC 10536
# Method: as §1
# [10] = test system: Staphylococcus epidermidis ATCC 12228; settings: Staphylococcus epidermidis, ATCC12228, 24 h
# Method: as §1
# [11] = test system: Enterococcus faecalis (VRE) ATCC 51299
# Method: as §1
# [12] = test system: Salmonella typhimurium ATCC 13311; settings: Salmonella enterica
# Method: as §1
# [13] = test system: Corynebacterium jeikeium ATCC 43734; settings: Corynebacterium jeikeium, ATCC43734, 24 h
# Method: as §1
# [14] = test system: Staphylococcus aureus subsp. aureus (MRSA) ATCC 700788
# Method: as §1
# [15] = test system: Staphylococcus aureus ATCC 27734
# Method: as §1
# [16] = test system: Micrococcus luteus ATCC 9341
# Method: as §1
# [17] = test system: Streptococcus pneumoniae ATCC 49619
# Method: as §1
# [18] = test system: Staphylococcus aureus ATCC 29737; settings: Staphylococcus aureus, ATCC29737, 24 h
# Method: as §1
# [19] = test system: Streptococcus pneumoniae (TCRSP) ATCC 700902
# Method: as §1
# [20] = test system: Staphylococus aureus (GISA) ATCC 700787
# Method: as §1
# [21] = test system: Shigella dysenteriae ATCC 11835; settings: Shigella dysenteriae, ATCC11835, 24 h
# Method: as §1
# [22] = test system: Eschericia coli ATCC 25922
# Method: as §1
# [23] = test system: Bacillus cereus ATCC 4342; settings: Bacillus cereus, ATCC4342, 24 h
# Method: as §1
# [24] = test system: Stenotrophomas maltophilia ATCC 13637; settings: 24 h
# Method: as §1
# [25] = test system: Corynebacterium jeikeium ATCC 43216; settings: Corynebacterium jeikeium, ATCC43216, 24 h
# Method: as §1
# [26] = test system: Staphylococcus aureus ATCC 29213; settings: Staphylococcus aureus, ATCC29213, 24 h
# Method: as §1
# [27] = test system: Pseudomonas aeruginosa ATCC 27853; settings: ATCC27853, 24 h
# Method: as §1
# [28] = test system: Klebsiella pneumoniae ATCC 10031; settings: ATCC10031, 24 h
# Method: as §1
# [29] = test system: Staphylococcus aureus (MRSA) ATCC 33591; settings: 24 h
# Method: as §1
smiles,measurement,setting,value
O=C(O)c1cn(C2CC2)c2cc(N3CCNCC3)c(F)cc2c1=O [Ciprofloxacin],MIC,"[1]; ATCC25416, Burkholderia cepacia ATCC 25416, Gram −, MHB, 35° C., 24 hours, read-out: MIC",0.25 µg/mL
same,MIC,"[2]; ATCC49137, Acinetobacter sp. ATCC 49137, Gram −, MHB, 35° C., 24 hours, read-out: MIC",0.0625 µg/mL
same,MIC,"[3]; Staphylococcus aureus subsp. aureus (MRSA & GISA) ATCC 700789, Gram +, MHB, 35° C., 24 hours, read-out: MIC",16 µg/mL
same,MIC,[4],> 64 µg/mL
same,MIC,"[5]; ATCC700671, Streptococcus pneumoniae (PSRSP) ATCC 700671, Gram +, MHB, 35° C., 24 hours, read-out: MIC",1 to 2 µg/mL
same,MIC,"[6]; ATCC700676, Streptococcus pneumoniae ATCC 700676, Gram +, MHB, 35° C., 24 hours, read-out: MIC",1 µg/mL
same,MIC,[7],0.0625 µg/mL
same,MIC,"[8]; ATCC700699, Staphylococcus aureus (GISA) ATCC 700699, Gram +, MHB, 35° C., 24 hours, read-out: MIC",16 µg/mL
same,MIC,"[9]; Eschericia coli ATCC 10536, Gram −, MHB, 35° C., 24 hours, read-out: MIC",0.0625 µg/mL
same,MIC,[10],0.0625 µg/mL
same,MIC,"[11]; Enterococcus faecalis (VRE) ATCC 51299, Gram +, MHB, 35° C., 24 hours, read-out: MIC",0.5 µg/mL
same,MIC,"[12]; Salmonella typhimurium ATCC 13311, Gram −, MHB, 35° C., 24 hours, read-out: MIC",0.0625 µg/mL
same,MIC,[13],0.0625 µg/mL
same,MIC,"[14]; Staphylococcus aureus subsp. aureus (MRSA) ATCC 700788, Gram +, MHB, 35° C., 24 hours, read-out: MIC",8 µg/mL
same,MIC,"[15]; ATCC27734, Staphylococcus aureus ATCC 27734, Gram +, MHB, 35° C., 24 hours, read-out: MIC",8 µg/mL
same,MIC,"[16]; ATCC9341, Micrococcus luteus ATCC 9341, Gram +, MHB, 35° C., 24 hours, read-out: MIC",1 µg/mL
same,MIC,"[17]; ATCC49619, Streptococcus pneumoniae ATCC 49619, Gram +, MHB, 35° C., 24 hours, read-out: MIC",0.5 µg/mL
same,MIC,[18],0.0625 to 0.25 µg/mL
same,MIC,"[19]; ATCC700902, Streptococcus pneumoniae (TCRSP) ATCC 700902, Gram +, MHB, 35° C., 24 hours, read-out: MIC",0.5 to 1 µg/mL
same,MIC,"[20]; Staphylococus aureus (GISA) ATCC 700787, Gram +, MHB, 35° C., 24 hours, read-out: MIC",16 µg/mL
same,MIC,[21],0.0625 µg/mL
same,MIC,"[22]; Eschericia coli ATCC 25922, Gram −, MHB, 35° C., 24 hours, read-out: MIC",0.0625 µg/mL
"CN[C@H](CC(C)C)C(=O)N[C@H]1C(=O)N[C@@H](CC(N)=O)C(=O)N[C@H]2C(=O)N[C@H]3C(=O)N[C@H](C(=O)N[C@H](C(=O)O)c4cc(O)cc(O)c4-c4cc3ccc4O)[C@H](O)c3ccc(c(Cl)c3)Oc3cc2cc(c3O[C@@H]2O[C@H](CO)[C@@H](O)[C@H](O)[C@H]2O[C@H]2C[C@](C)(N)[C@H](O)[C@H](C)O2)Oc2ccc(cc2Cl)[C@H]1O [Vancomycin, vancomycin]",MIC,"[1]; Burkholderia cepacia, ATCC25416, 24 h",> 64 µg/mL
same,MIC,"[2]; Acinetobacter, ATCC49137, 24 h",> 64 µg/mL
same,MIC,"[3]; Staphylococcus aureus, 24 h",2 µg/mL
same,MIC,"[5]; Streptococcus pneumoniae, ATCC700671, 24 h",0.5 µg/mL
same,MIC,[23],1 µg/mL
same,MIC,[24],32 µg/mL
same,MIC,"[6]; Streptococcus pneumoniae, ATCC700676, 24 h",0.25 µg/mL
same,MIC,[7],> 64 µg/mL
same,MIC,"[8]; Staphylococcus aureus, ATCC700699, 24 h",8 µg/mL
same,MIC,[9]; 24 h,> 64 µg/mL
same,MIC,[25],0.25 µg/mL
same,MIC,[10],1 µg/mL
same,MIC,"[11]; Enterococcus faecalis, 24 h",2 µg/mL
same,MIC,[12]; 24 h,> 64 µg/mL
same,MIC,[13],0.25 µg/mL
same,MIC,"[14]; Staphylococcus aureus, 24 h",2 µg/mL
same,MIC,"[15]; Staphylococcus aureus, ATCC27734, 24 h",1 µg/mL
same,MIC,"[16]; Micrococcus luteus, ATCC9341, 24 h",0.5 µg/mL
same,MIC,"[17]; Streptococcus pneumoniae, ATCC49619, 24 h",0.5 to 1 µg/mL
same,MIC,[26],0.5 µg/mL
same,MIC,[18],0.5 µg/mL
same,MIC,[27],> 64 µg/mL
same,MIC,"[19]; Streptococcus pneumoniae, ATCC700902, 24 h",0.25 µg/mL
same,MIC,[20]; 24 h,8 µg/mL
same,MIC,[21],> 64 µg/mL
same,MIC,[22]; 24 h,> 64 µg/mL
same,MIC,[28],> 64 µg/mL
same,MIC,[29],1 µg/mL
